Laboratory results published in patent publication US8697715B2, “Serine/threonine kinase inhibitors” (Array BioPharma Inc., priority 2012, dated 2014).

System: PMA-stimulated P90RSK(Ser380) phosphorylation in HepG2 cells
Test: Cellular P90RSK(Ser380) Phosphorylation Assay
Format: cell-based
Conditions: Homo sapiens, read-out: Biological Example 2 IC50 (nM), 1.5 hours compound incubation, PMA 100 ng/mL 30 minutes, normalized to GAPDH, single assay or mean of multiple assays
Protocol: Inhibition of PMA-stimulated P90RSK(Ser380) phosphorylation was determined by the following in vitro cellular mechanistic assay, which comprises incubating cells with a compound for 1.5 hours and quantifying fluorescent pP90RSK(Ser380) signal on fixed cells and normalizing to GAPDH signal.
HepG2 cells were obtained from ATCC and grown in DMEM supplemented with 10% fetal bovine serum. Cells were plated in 96-well plates at 35,000 cells/well and allowed to attach overnight at 37° C./5% CO2. Diluted compounds were then added at a final concentration of 0.5% DMSO. After 1.5 hours compound incubation, cells were stimulated with the addition of phorbol 12-myristate 13-acetate (“PMA”) at a final concentration of 100 ng/mL; the PMA stimulation was a 30-minute incubation at 37° C./5% CO2. After the 30-minute PMA stimulation, cells were washed with phosphate buffered saline (“PBS”) and fixed in 3.7% formaldehyde in PBS at room temperature for 15-20 minutes. This was followed by another wash in PBS and then permeabilization in 100% MeOH at room temperature for 10-15 minutes. Following the permeabilization incubation, cells were washed in PBS/0.05% Tween-20, followed by a block in Odyssey blocking buffer (LI-COR Biosciences) for at least 1 hour. […] Both secondary antibodies were used at a 1:1000 dilution. Cells were then washed and analyzed for fluorescence at both wavelengths using the Odyssey Infrared Imaging System (LI-COR Biosciences). Phosphorylated P90RSK(Ser380) signal was normalized to GAPDH signal.

| Compound | IC50 |
| --- | --- |
| O=c1cc(-c2ccnc(NC3CCOCC3)n2)ccn1[C@H](CO)c1ccc(Cl)c(F)c1 [Example 1, (S)-1-(1-(4-chloro-3-fluorophenyl)-2-hydroxyethyl)-4-(2-((tetrahydro-2H-pyran-4-yl)amino)pyrimidin-4-yl)pyridin-2(1H)-one] | 31.9 nM |
| O=c1cc(-c2ccnc(N[C@H]3CCOC[C@H]3F)n2)ccn1[C@H](CO)c1ccc(Cl)c(F)c1 [Example 2, 1-((S)-1-(4-chloro-3-fluorophenyl)-2-hydroxyethyl)-4-(2(((3S,4S)-3-fluorotetrahydro-2H-pyran-4-yl)amino)pyrimidin-4-yl)pyridin-2(1H)-one] | 59.1 nM |
| O=c1cc(-c2ccnc(N[C@@H]3CCOC[C@H]3F)n2)ccn1[C@H](CO)c1ccc(Cl)c(F)c1 [Example 3, 1-((S)-1-(4-chloro-3-fluorophenyl)-2-hydroxyethyl)-4-(2-(((3S,4R)-3-fluorotetrahydro-2H-pyran-4-yl)amino)pyrimidin-4-yl)pyridin-2(1H)-one] | 40.3 nM |
| O=c1cc(-c2ccnc(N[C@H]3CCOC[C@H]3F)n2)ccn1[C@H](CO)c1ccc(Cl)c(Cl)c1 [Example 4, 1-((S)-1-(3,4-dichlorophenyl)-2-hydroxyethyl)-4-(2-(((3S,4S)-3-fluorotetrahydro-2H-pyran-4-yl)amino)pyrimidin-4-yl)pyridin-2(1H)-one] | 8.5 nM |
| Cn1nccc1Nc1nccc(-c2ccn([C@H](CO)c3ccc(Cl)c(F)c3)c(=O)c2)n1 [Example 39, (S)-1-(1-(4-chloro-3-fluorophenyl)-2-hydroxyethyl)-4-(2-((1-methyl-1H-pyrazol-5-yl)amino)pyrimidin-4-yl)pyridin-2(1H)-one] | 15.5 nM |
| O=c1cc(-c2ccnc(N[C@@H]3C[C@@H]4C[C@H]3CO4)n2)ccn1[C@H](CO)c1ccc(Cl)c(F)c1 [Example 42, 4-(2-((1S,4R,5R)-2-oxabicyclo[2.2.1]heptan-5-ylamino)pyrimidin-4-yl)-1-((S)-1-(4-chloro-3-fluorophenyl)-2-hydroxyethyl)pyridin-2(1H)-one] | 74 nM |
| COc1ccc([C@@H]([C@H]2CCCN2)n2ccc(-c3ccnc(NC4CCOCC4)n3)cc2=O)cc1F [Example 50, 1-((S)-(3-fluoro-4-methoxyphenyl)((R)-pyrrolidin-2-yl)methyl)-4-(2-((tetrahydro-2H-pyran-4-yl)amino)pyrimidin-4-yl)pyridin-2(1H)-one] | 292 nM |
| O=c1cc(-c2ccnc(NC3CCOCC3)n2)ccn1[C@H](CO)c1cccc(Cl)c1 [Example 57, (S)-1-(1-(3-chlorophenyl)-2-hydroxyethyl)-4-(2-((tetrahydro-2H-pyran-4-yl)amino)pyrimidin-4-yl)pyridin-2(1H)-one] | 1770 nM |
| C[C@@H](CO)Nc1nccc(-c2ccn(C(CO)c3cccc(Cl)c3)c(=O)c2)n1 (stereo partly drawn) [Example 58, 1-(1-(3-chlorophenyl)-2-hydroxyethyl)-4-(2-(((S)-1-hydroxypropan-2-yl)amino)pyrimidin-4-yl)pyridin-2(1H)-one] | 708 nM |
| C[C@@H](CO)Nc1nccc(-c2ccn(C(CO)c3ccc(F)c(Cl)c3)c(=O)c2)n1 (stereo partly drawn) [Example 60, 1-(1-(3-chloro-4-fluorophenyl)-2-hydroxyethyl)-4-(2-(((S)-1-hydroxypropan-2-yl)amino)pyrimidin-4-yl)pyridin-2(1H)-one] | 1610 nM |
| O=c1cc(-c2ccnc(NC3CCOCC3)n2)ccn1C(c1ccc(Cl)c(F)c1)[C@@H]1CCCN1 (stereo partly drawn) [Example 102, 1-((4-chloro-3-fluorophenyl)((S)-pyrrolidin-2-yl)methyl)-4-(2-((tetrahydro-2H-pyran-4-yl)amino)pyrimidin-4-yl)pyridin-2(1H)-one] | > 5000 nM |
| CC[C@@H](CO)Nc1nccc(-c2ccn(C(C)c3ccc(Cl)c(F)c3)c(=O)c2)n1 (stereo partly drawn) [Example 134, 1-(1-(4-chloro-3-fluorophenyl)ethyl)-4-(2-(((S)-1-hydroxybutan-2-yl)amino)pyrimidin-4-yl)pyridin-2(1H)-one] | 544 nM |
| CCc1nccc(Nc2nccc(-c3ccn(C(CO)c4ccc(Cl)c(F)c4)c(=O)c3)n2)n1 (centres unmarked) [Example 139, 1-(1-(4-chloro-3-fluorophenyl)-2-hydroxyethyl)-4-(2-((2-ethylpyrimidin-4-yl)amino)pyrimidin-4-yl)pyridin-2(1H)-one] | 372 nM |
| O=c1cc(-c2ccnc(NC3CCOCC3)n2)ccn1CCc1ccc(OC(F)(F)F)cc1 [Example 157, 4-(2-((tetrahydro-2H-pyran-4-yl)amino)pyrimidin-4-yl)-1-(4-(trifluoromethoxy)phenethyl)pyridin-2(1H)-one] | 46.3 nM |
| Cc1nn(C)cc1Nc1nccc(-c2ccn(C(CO)c3ccc(Cl)c(F)c3)c(=O)c2)n1 (centres unmarked) [Example 166, 1-(1-(4-chloro-3-fluorophenyl)-2-hydroxyethyl)-4-(2-((1,3-dimethyl-1H-pyrazol-4-yl)amino)pyrimidin-4-yl)pyridin-2(1H)-one] | 12.9 nM |
| Cc1cc(Nc2nccc(-c3ccn([C@H](CO)c4ccc(Cl)c(F)c4)c(=O)c3)n2)n(C)n1 [Example 167, (S)-1-(1-(4-chloro-3-fluorophenyl)-2-hydroxyethyl)-4-(2-((1,3-dimethyl-1H-pyrazol-5-yl)amino)pyrimidin-4-yl)pyridin-2(1H)-one] | 100 nM |
| C=C(c1ccc(Cl)c(F)c1)n1ccc(-c2ccnc(Nc3ccnc(C)c3)n2)cc1=O [Example 172, 1-(1-(4-chloro-3-fluorophenyl)vinyl)-4-(2-((2-methylpyridin-4-yl)amino)pyrimidin-4-yl)pyridin-2(1H)-one] | 12.9 nM |
| CCn1cc(Nc2nccc(-c3ccn([C@H](CO)c4ccc(Cl)c(F)c4)c(=O)c3)n2)c(C)n1 [Example 173, (S)-1-(1-(4-chloro-3-fluorophenyl)-2-hydroxyethyl)-4-(2-((1-ethyl-3-methyl-1H-pyrazol-4-yl)amino)pyrimidin-4-yl)pyridin-2(1H)-one] | 110 nM |
| Cc1nc[nH]c1Nc1nccc(-c2ccn([C@H](CO)c3ccc(Cl)c(F)c3)c(=O)c2)n1 [Example 185, (S)-1-(1-(4-chloro-3-fluorophenyl)-2-hydroxyethyl)-4-(2-((4-methyl-1H-imidazol-5-yl)amino)pyrimidin-4-yl)pyridin-2(1H)-one] | 19.6 nM |
| Cn1cc(C(c2ccc(Cl)c(Cl)c2)n2ccc(-c3nc(NC4CCOCC4)ncc3F)cc2=O)cn1 (centres unmarked) [Example 209, 1-((3,4-dichlorophenyl)(1-methyl-1H-pyrazol-4-yl)methyl)-4-(5-fluoro-2-((tetrahydro-2H-pyran-4-yl)amino)pyrimidin-4-yl)pyridin-2(1H)-one] | 6.7 nM |
| O=c1cc(-c2ccnc(NC3CCOCC3)n2)ccn1Cc1cc2ccc(Cl)cc2[nH]1 [Example 250, 1-((6-chloro-1H-indol-2-yl)methyl)-4-(2-((tetrahydro-2H-pyran-4-yl)amino)pyrimidin-4-yl)pyridin-2(1H)-one] | 15.2 nM |
| O=c1cc(-c2ccnc(NC3CCOCC3)n2)ccn1Cc1cc2c(F)cccc2[nH]1 [Example 266, 1-((4-fluoro-1H-indol-2-yl)methyl)-4-(2-((tetrahydro-2H-pyran-4-yl)amino)pyrimidin-4-yl)pyridin-2(1H)-one] | 8.6 nM |
| O=c1cc(-c2ccnc(NC3CCOCC3)n2)ccn1Cc1cc(F)c2cc[nH]c2c1 [Example 289, 1-((4-fluoro-1H-indol-6-yl)methyl)-4-(2-((tetrahydro-2H-pyran-4-yl)amino)pyrimidin-4-yl)pyridin-2(1H)-one] | 20.4 nM |
